In patent US20240376097A1, “BCL-2 Inhibitor” (BeiGene Ltd., priority 2020, published 2024):
Like-named read-outs stand apart in the source and are kept apart here.

Legend:
[1] = system: recombinant human Bcl-2-G101V protein; assay: Bcl-2-G101V TR-FRET Assay; format: binding; details: ratio of biochemical IC50 Bcl-2 G101V / Bcl-2 WT
How it was run: (§1)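 Measures how compounds block Bcl-2-G101V engaging its ligand, by TR-FRET with 337 nm excitation and a 490/520 nm emission ratio; dose-response data give IC50 via a four-parameter logistic model.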

[2] = molecular target: recombinant human Bcl-2-G101V protein (Homo sapiens (Human), UniProt P10415, G101V); assay: Bcl-2-G101V TR-FRET Assay; format: binding; details: Bcl-2 G101V mutant, TR-FRET; read-out: Biochemical assay (IC50, nM) Bcl-2 G101V
How it was run: as §1

[3] = system: RS4;11 (BCL-2 dependent acute lymphoblastic leukemia cell line); assay: RS4;11 Cell Proliferation Assay; format: cell-based; details: Homo sapiens, RS4-11, RS4;11 cells, read-out: Cellular proliferation assay (IC50, nM) RS4
How it was run: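 RS4;11 cells, 50,000 per well in RPMI-1640 with 10% FBS, treated 48 h at 37 °C with a 10-point dilution series topping at 1 μM. Viability read by CellTiter-Glo ATP luminescence; mean IC50 reported.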

[4] = molecular target: Recombinant human Bcl-2 protein (Homo sapiens (Human), UniProt P10415); assay: Bcl-2 TR-FRET Assay; format: binding
How it was run: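 Compounds were pre-incubated with 0.05 nM recombinant Bcl-2 for 0.5 h at room temperature in potassium phosphate buffer, pH 7.5. FITC-Bak peptide (0.5 nM) and Tb-cryptate antibody were then added for 1 h. Percent inhibition from TR-FRET signals gave IC50 values.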

[5] = system: BCL-2 G101V knock-in cell line H96 (derive from RS4;11); assay: Bcl 2-G101V Knock-In RS4;11 Cell Proliferation Assay; format: cell-based; details: Homo sapiens, RS4;11 Bcl-2 G101V knock-in clone H96, 48 hrs, CellTiter-GLO, read-out: Cellular proliferation assay (IC50, nM) RS4
How it was run: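 H96, a CRISPR-generated RS4;11 clone carrying BCL2-G101V knock-in (WES/RNA-seq validated), seeded 50,000 per well and exposed 48 h at 37 °C to 10-point dilutions topping at 1 or 10 μM. Viability by CellTiter-Glo luminescence; mean IC50.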

[6] = molecular target: recombinant human Bcl-2 D103Y protein (Homo sapiens (Human), UniProt P10415, D103Y); assay: Bcl-2-D103Y Biochemical Assay (TR-FRET); format: binding; details: for IC50: TR-FRET, FITC labeled Bak peptide; for Ratio of Bcl-2 D103Y/Bcl-2 WT: ratio of IC50
How it was run: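 Recombinant human Bcl-2 D103Y binding to its ligand measured by TR-FRET (ex 337 nm, em 490/520 nm) with increasing compound concentrations. Percent inhibition from the 490/520 nm ratio; IC50 from four-parameter logistic fit.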

[7] = Bcl-2 wild type, TR-FRET, read-out: Biochemical assay (IC50, nM) Bcl-2 WT
[8] = wild type Bcl-2, unit inferred, read-out: Bcl-2 WT

SMILES	Ratio of Bcl-2 G101V/WT [1]	IC50 [2] [nM]	IC50 [3] [nM]	IC50 [4, 7] [nM]	IC50 [4, 8] [nM]	IC50 [5] [nM]	IC50 [6] [nM]	Ratio of Bcl-2 D103Y/Bcl-2 WT [6]
CC(C)c1ccccc1[C@@H]1CN(Cc2ccc3c(c2)OCC3)CCN1C1CC2(CCN(c3ccc(C(=O)NS(=O)(=O)c4ccc(NC[C@H]5CC[C@](C)(O)CC5)c([N+](=O)[O-])c4)c(Oc4cnc5[nH]ccc5c4)c3)CC2)C1 [Example 304, 2-((1H-pyrrolo[2,3-b]pyridin-5-yl)oxy)-4-(2-((R)-4-((2,3-dihydrobenzofuran-6-yl)methyl)-2-(2-isopropylphenyl)piperazin-1-yl)-7-azaspiro[3.5]nonan-7-yl)-N-((4-((((1r,4r)-4-hydroxy-4-methylcyclohexyl)methyl)amino)-3-nitrophenyl)sulfonyl)benzamide]	3.2	0.41	0.3	0.13	0.13	2.3	0.22	1.8
COC1C2CC3CCC(CN4CCN(C5CC6(C5)CN(c5ccc(C(=O)NS(=O)(=O)c7ccc(NC[C@H]8CC[C@](C)(O)CC8)c([N+](=O)[O-])c7)c(Oc7cnc8[nH]cc(F)c8c7)c5)C6)[C@H](c5ccccc5C(C)C)C4)(C2)CC31 (stereo partly drawn) [Example 355, 2-((3-fluoro-1H-pyrrolo[2,3-b]pyridin-5-yl)oxy)-N-((4-((((1r,4r)-4-hydroxy-4-methylcyclohexyl)methyl)amino)-3-nitrophenyl)sulfonyl)-4-(6-((2R)-2-(2-isopropylphenyl)-4-((3-methoxyoctahydro-5H-2,5-methanoinden-5-yl)methyl)piperazin-1-yl)-2-azaspiro[3.3]heptan-2-yl)benzamide]	3.6	1.1	0.2	0.31	0.31	2.8	1.8	5.8
COc1ccc(CN2CCN(C3CC4(C3)CN(c3ccc(C(=O)NS(=O)(=O)c5ccc(NC[C@H]6CC[C@](C)(O)CC6)c([N+](=O)[O-])c5)c(Oc5cnc6[nH]cc(F)c6c5)c3)C4)[C@H](c3ccccc3C(C)C)C2)cn1 [Example 215, 2-((3-fluoro-1H-pyrrolo[2,3-b]pyridin-5-yl)oxy)-N-((4-((((1r,4r)-4-hydroxy-4-methylcyclohexyl)methyl)amino)-3-nitrophenyl)sulfonyl)-4-(6-((R)-2-(2-isopropylphenyl)-4-((6-methoxypyridin-3-yl)methyl)piperazin-1-yl)-2-azaspiro[3.3]heptan-2-yl)benzamide]	2.5	0.14	0.11	0.057	0.057	0.29	0.062	1.1
CC(C)c1ccccc1C1CN(CCc2ccccc2)CCN1C1CC2(CCN(c3ccc(C(=O)NS(=O)(=O)c4ccc(NC[C@H]5CC[C@](C)(O)CC5)c([N+](=O)[O-])c4)c(Oc4cnc5[nH]ccc5c4)c3)CC2)C1 (stereo partly drawn) [Example 26, 2-((1H-pyrrolo[2,3-b]pyridin-5-yl)oxy)-N-((4-((((1r,4r)-4-hydroxy-4-methylcyclohexyl)methyl)amino)-3-nitrophenyl)sulfonyl)-4-(2-(2-(2-isopropylphenyl)-4-phenethylpiperazin-1-yl)-7-azaspiro[3.5]nonan-7-yl)benzamide]	12.7	1.4	0.85	0.11	0.11	8.48	0.51	4.7
[2H]C([2H])([2H])Oc1cc(CN2CCN(C3CC4(C3)CN(c3ccc(C(=O)NS(=O)(=O)c5ccc(NC[C@H]6CC[C@](C)(O)CC6)c([N+](=O)[O-])c5)c(Oc5cnc6[nH]ccc6c5)c3)C4)[C@H](c3ccccc3C(C)C)C2)cc2c1OCC2(C)C [Example 324, 2-((1H-pyrrolo[2,3-b]pyridin-5-yl)oxy)-N-((4-((((1r,4r)-4-hydroxy-4-methylcyclohexyl)methyl)amino)-3-nitrophenyl)sulfonyl)-4-(6-((R)-2-(2-isopropylphenyl)-4-((7-(methoxy-d3)-3,3-dimethyl-2,3-dihydrobenzofuran-5-yl)methyl)piperazin-1-yl)-2-azaspiro[3.3]heptan-2-yl)benzamide]	1.9	0.31	0.22	0.16	0.16	0.51	0.14	0.87
CC(C)c1ccccc1[C@@H]1CN(Cc2ccc(F)cc2)CCN1C1CC2(CCN(c3ccc(C(=O)NS(=O)(=O)c4ccc(NC[C@H]5CC[C@](C)(O)CC5)c([N+](=O)[O-])c4)c(Oc4cnc5[nH]ccc5c4)c3)CC2)C1 (single isomer, unassigned) [Example 28a, 2-((1H-pyrrolo[2,3-b]pyridin-5-yl)oxy)-4-(2-((R or S)-4-(4-fluorobenzyl)-2-(2-isopropylphenyl)piperazin-1-yl)-7-azaspiro[3.5]nonan-7-yl)-N-((4-((((1r,4r)-4-hydroxy-4-methylcyclohexyl)methyl)amino)-3-nitrophenyl)sulfonyl)benzamide]	3.3	0.33	0.21	0.098	0.098	1.23	0.2	2.1
COc1cc(CN2CCN(C3CC4(CCN(c5ccc(C(=O)NS(=O)(=O)c6ccc(NC[C@H]7CC[C@](C)(O)CC7)c([N+](=O)[O-])c6)c(Oc6cnc7[nH]cc(F)c7c6)c5)CC4)C3)[C@H](c3ccccc3C(C)C)C2)ccc1C [Example 273, 2-((3-fluoro-1H-pyrrolo[2,3-b]pyridin-5-yl)oxy)-N-((4-((((1r,4r)-4-hydroxy-4-methylcyclohexyl)methyl)amino)-3-nitrophenyl)sulfonyl)-4-(2-((R)-2-(2-isopropylphenyl)-4-(3-methoxy-4-methylbenzyl)piperazin-1-yl)-7-azaspiro[3.5]nonan-7-yl)benzamide]	2.6	1.9	0.25	0.7	0.7	0.46	0.82	1.2
CC(C)c1ccccc1C1CN(C2CCOCC2)CCN1C1CC2(CCN(c3ccc(C(=O)NS(=O)(=O)c4ccc(NC[C@H]5CC[C@](C)(O)CC5)c([N+](=O)[O-])c4)c(Oc4cnc5[nH]ccc5c4)c3)CC2)C1 (stereo partly drawn) [Example 10, 2-((1H-pyrrolo[2,3-b]pyridin-5-yl)oxy)-N-((4-((((1r,4r)-4-hydroxy-4-methylcyclohexyl)methyl)amino)-3-nitrophenyl)sulfonyl)-4-(2-(2-(2-isopropylphenyl)-4-(tetrahydro-2H-pyran-4-yl)piperazin-1-yl)-7-azaspiro[3.5]nonan-7-yl)benzamide]	17.5	0.21	0.42	0.012	0.012	3.16	0.12	10
CCOc1cc(CN2CCN(C3CC4(CCN(c5ccc(C(=O)NS(=O)(=O)c6ccc(NC[C@H]7CC[C@](C)(O)CC7)c([N+](=O)[O-])c6)c(Oc6cnc7[nH]ccc7c6)c5)CC4)C3)C(c3ccccc3C(C)C)C2)ccc1OC (stereo partly drawn) [Example 124, 2-((1H-pyrrolo[2,3-b]pyridin-5-yl)oxy)-4-(2-(4-(3-ethoxy-4-methoxybenzyl)-2-(2-isopropylphenyl)piperazin-1-yl)-7-azaspiro[3.5]nonan-7-yl)-N-((4-((((1r,4r)-4-hydroxy-4-methylcyclohexyl)methyl)amino)-3-nitrophenyl)sulfonyl)benzamide]	3.4	0.51	0.24	0.15	0.15	1.2	0.21	1.4
